The text below walks through data of patent US7553966B2, “Glucocorticoid mimetics, methods of making them, pharmaceutical compositions, and uses thereof” (Boehringer Ingelheim Pharmaceuticals, Inc., priority 2002, dated 2009).

For test [1], the target named is T1, human glucocorticoid receptor (GR) complex (Homo sapiens, UniProt P04150).
T1 construct: made in house; host or cells: insect expression system (baculovirus lysate)
T1 sequence (P04150 1-777): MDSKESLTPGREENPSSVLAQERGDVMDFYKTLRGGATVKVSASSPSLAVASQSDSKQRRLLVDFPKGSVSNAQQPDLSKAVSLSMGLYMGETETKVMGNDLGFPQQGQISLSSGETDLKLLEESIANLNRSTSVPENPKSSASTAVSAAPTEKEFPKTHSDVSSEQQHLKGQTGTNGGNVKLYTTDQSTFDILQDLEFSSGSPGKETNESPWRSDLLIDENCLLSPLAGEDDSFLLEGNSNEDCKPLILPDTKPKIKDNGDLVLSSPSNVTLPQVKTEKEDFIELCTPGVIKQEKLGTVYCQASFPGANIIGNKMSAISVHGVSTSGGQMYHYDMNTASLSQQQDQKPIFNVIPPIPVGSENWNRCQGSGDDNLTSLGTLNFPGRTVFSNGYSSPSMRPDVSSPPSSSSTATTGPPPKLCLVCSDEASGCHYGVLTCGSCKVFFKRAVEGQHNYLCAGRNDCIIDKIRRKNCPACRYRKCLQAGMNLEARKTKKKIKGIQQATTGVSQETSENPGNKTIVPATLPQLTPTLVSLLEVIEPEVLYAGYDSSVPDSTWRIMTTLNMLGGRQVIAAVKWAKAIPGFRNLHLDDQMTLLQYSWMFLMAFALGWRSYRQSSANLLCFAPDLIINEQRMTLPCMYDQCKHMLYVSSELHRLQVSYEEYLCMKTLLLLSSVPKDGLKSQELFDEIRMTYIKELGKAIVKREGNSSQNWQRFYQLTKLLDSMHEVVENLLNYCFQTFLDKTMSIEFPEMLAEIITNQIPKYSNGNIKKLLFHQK
Description: Glucocorticoid Receptor Competitive Binding Assay (fluorescence polarization, TAMRA-labeled dexamethasone probe). The following applies: qualitative statement; competition with TAMRA-labeled dexamethasone. The procedure, abridged:
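Competition with TAMRA-dexamethasone for a human GR complex expressed in insect cells, read by fluorescence polarization. Buffer was 10 mM TES, 50 mM KCl, 20 mM Na2MoO4, 1.5 mM EDTA, 0.04% CHAPS, 10% glycerol, 1 mM DTT, pH 7.4.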

For a further test, the system named is glucocorticoid receptor. Kind of test: Glucocorticoid Receptor Cell Assays (agonist activity in one or more of the above assays). Type of test: cell-based. The following applies: qualitative statement; assay not specified.

Molecules are shown by their SMILES.

As for `CC(C)(CC(O)(Cc1ccnc2ccccc12)C(F)(F)F)c1cccc2c1OCC2` (stereo not shown) [4-(2,3-Dihydrobenzofuran-7-yl)-1,1,1-trifluoro-4-methyl-2-quinolin-4-ylmethylpentan-2-ol], the “activity in the GR binding assay” value in test [1] is on record as “potent activity”. Further, the “activity as agonists of the glucocorticoid receptor function in one or more of the above assays” value (from here on “activity as agonists”) in the test with glucocorticoid receptor was “potent agonists”.

Regarding `CC(C)(CC(O)(Cc1cc2ccccc2[nH]1)C(F)(F)F)c1cccc2c1OCC2` (stereo not shown) [4-(2,3-dihydrobenzofuran-7-yl)-1,1,1-trifluoro-2-(1H-indol-2-ylmethyl)-4-methylpentan-2-ol], the “activity in the GR binding assay” value in test [1] is “potent activity”. The “activity as agonists” value in the test on glucocorticoid receptor is “potent agonists”.

For the compound `CC(C)(CC(O)(Cc1cc2ccccc2[nH]1)C(F)(F)F)c1cc(Br)cc2c1OCC2` (stereo not shown) [4-(5-Bromo-2,3-dihydrobenzofuran-7-yl)-1,1,1-trifluoro-2-(1H-indol-2-ylmethyl)-4-methylpentan-2-ol], the “activity in the GR binding assay” value in test [1] is “potent activity”. Also, in the test with glucocorticoid receptor, the “activity as agonists” value is listed as “potent agonists”.

For the compound `CC(C)(CC(O)(Cc1ccnc2ccccc12)C(F)(F)F)c1cc(Br)cc2c1OCC2` (stereo not shown) [4-(5-Bromo-2,3-dihydrobenzofuran-7-yl)-1,1,1-trifluoro-4-methyl-2-quinolin-4-ylmethylpentan-2-ol], the “activity in the GR binding assay” value in test [1] is recorded as “potent activity”. The “activity as agonists” value in the test on glucocorticoid receptor is “potent agonists”.

With `COc1ccc(Br)cc1C(C)(C)CC(O)(Cc1cc2ccccc2[nH]1)C(F)(F)F` (stereo not shown) [4-(5-Bromo-2-methoxyphenyl)-1,1,1-trifluoro-2-(1H-indol-2-ylmethyl)-4-methylpentan-2-ol], the “activity in the GR binding assay” value in test [1] is recorded as “potent activity”. Moreover, in the test on glucocorticoid receptor, the “activity as agonists” value is on record as “potent agonists”.

In the case of `COc1ccc(Br)cc1C(C)(C)CC(O)(Cc1ccnc2ccccc12)C(F)(F)F` (stereo not shown) [4-(5-Bromo-2-methoxyphenyl)-1,1,1-trifluoro-4-methyl-2-quinolin-4-ylmethylpentan-2-ol], the “activity in the GR binding assay” value in test [1] is “potent activity”. Besides, the “activity as agonists” value in the test with glucocorticoid receptor is “potent agonists”.

For the compound `COc1cc(F)c(Br)cc1C(C)(C)CC(O)(Cc1ccnc2ccccc12)C(F)(F)F` (stereo not shown) [4-(5-Bromo-4-fluoro-2-methoxyphenyl)-1,1,1-trifluoro-4-methyl-2-quinolin-4-ylmethylpentan-2-ol], the “activity in the GR binding assay” value in test [1] was “potent activity”. Also, the “activity as agonists” value in the test with glucocorticoid receptor is listed as “potent agonists”.

Turning to `CC(C)(CC(O)(Cc1ccnc2ccccc12)C(F)(F)F)c1cc(Br)c2c(c1)CCO2` (stereo not shown) [4-(7-Bromo-2,3-dihydrobenzofuran-5-yl)-1,1,1-trifluoro-4-methyl-2-quinolin-4-ylmethylpentan-2-ol], the “activity in the GR binding assay” value in test [1] is “potent activity”. The “activity as agonists” value in the test with glucocorticoid receptor is listed as “potent agonists”.

In the case of `CC(C)(CC(O)(Cc1ccnc2ccccc12)C(F)(F)F)c1cc(Br)ccc1O` (stereo not shown) [4-Bromo-2-(4,4,4-trifluoro-3-hydroxy-1,1-dimethyl-3-quinolin-4-ylmethylbutyl)phenol], the “activity in the GR binding assay” value in test [1] is on record as “potent activity”. In addition, the “activity as agonists” value in the test on glucocorticoid receptor is “potent agonists”.

`CC(C)(CC(O)(Cc1cc2ccncc2[nH]1)C(F)(F)F)c1cc(F)ccc1O` (stereo not shown) [4-Fluoro-2-[4,4,4-trifluoro-3-hydroxy-1,1-dimethyl-3-(1H-pyrrolo[2,3-c]pyridin-2-ylmethyl)butyl]phenol]: the “activity in the GR binding assay” value in test [1] is reported as “potent activity”. Further, the “activity as agonists” value in the test with glucocorticoid receptor is “potent agonists”.

In the case of `CC(C)(CC(O)(Cc1cc2cnccc2[nH]1)C(F)(F)F)c1cc(F)ccc1O` (stereo not shown) [4-Fluoro-2-[4,4,4-trifluoro-3-hydroxy-1,1-dimethyl-3-(1H-pyrrolo[3,2-c]pyridin-2-ylmethyl)butyl]phenol], the “activity in the GR binding assay” value in test [1] is “potent activity”. Besides, the “activity as agonists” value with glucocorticoid receptor is reported as “potent agonists”.
